Source: paper PMC11087509, “Multimodal binding and inhibition of bacterial ribosomes by the antimicrobial peptides Api137 and Api88” (Nature Communications, 2024)
Where a SMILES comes first, the peptide text is derived from it. The star is where a group is joined. Orn(α-tetramethylguanidino) = CN(C)C(=N[C@@H](CCCN)C(=O)*)N(C)C

What was measured:
[1] = tested on: murine infection models; settings: various models, different routes of administration; cited from earlier work
Description: Here we have focused on two structurally modified versions of apidaecin 1b ([…]), which was originally isolated from the western honeybee (Apis mellifera). […] Api137 and Api88 differ only in their C-termini, i.e., a free acid versus an amide, which are negatively charged or neutral, respectively, ...

[2] = biological target: T1, 50S subunit (Escherichia coli, UniProt P0A7M6+P0ADZ0+P60723+P61175); experiment: Cryo-EM of 50S•Api137 and 50S•Api88 complexes; type: binding, E. coli; settings: 50S 0.3 µM, peptide 30 µM, Tico buffer pH 7.6, room temperature, 20 min
T1 construct: Ribosomes were isolated from the E. coli strain MRE600; made in house; native subunits isolated in house
Description: Several hundred grams of log-phase cells were commercially produced and purchased. Cells were washed in buffer A (20 mmol/L HEPES (pH 7.6), 6 mmol/L MgAc2, 30 mmol/L AcOK, 4 mmol/L ß-mercaptoethanol) and lysed in an M-110L microfluidizer (Microfluidics) at 17,000 psi and 4 °C. Cell debris was removed by low-speed centrifugation (15,000× g, 10 min, 4 °C) to obtain S30 lysate. Crude ribosomes, mostly containing 70S ribosomes, were pelleted by ultracentrifugation (40,000× g, 17 h, 4 °C) and resuspended in buffer A. The 70S ribosomes were separated from 30S and 50S subunits by zonal ultracentrifugation (Beckman Ti-15; 6–40% sucrose gradient in buffer A, 44,000× g, 16 h, 4 °C). The 70S-containing fractions were collected, and the ribosomes were sedimented by ultracentrifugation (40,000× g, 17 h, 4 °C). […]
Purified 50S subunits (0.3 µM) were incubated with Api137 or Api88 (30 µM) in Tico buffer (20 mM HEPES/KOH, pH 7.6, 30 mM AcOK, 6 mM Mg(AcO)2, 4 mM 2-mercaptoethanol) at room temperature for 20 min. The complexes were applied to glow-discharged (Pelco Easy Glow) holey carbon grids (400 Mesh Cu R2/2, Quantifoil MicroTools GmbH) and plunge-frozen in liquid ethane using a Vitrobot Mark IV (Thermo Fisher Scientific) device. […]

[3] = biological target: DnaK; settings: read-out: Kd (DnaK); peer review response; cited from earlier work
Description: We now introduce trigger factor in line 446 as “…molecular chaperone…” In addition, we hypothesize that Api88 binds to the ribosome within the contact area of TF, which interacts with uL23 and uL29, two proteins we report here as cross-linked to Api88.

[4] = tested on: purified 70S ribosomes; experiment: In vitro transcription-translation (ITT) of sfGFP; type: biochemical, E. coli
Description: sfGFP was expressed using the NEB PureExpress Delta RF123 Kit (New England Biolabs). The sfGFP DNA template encoding for an UAG stop codon was amplified from the pY71sfGFP plasmid by PCR using sfGFP primers (sfGFP fwd: […] and sfGFP rev: […]). The release factor RF1 included in the kit was 50-fold diluted (v/v) in freshly prepared 1x Pure System Buffer (PSB, 9 mmol/L magnesium acetate, 5 mmol/L K3PO4 (pH 7.3), 95 mmol/L potassium glutamate, 5 mmol/L NH4Cl, 0.5 mmol/L CaCl2, 1 mmol/L spermidine, 8 mmol/L putrescine, 1 mmol/L DTT). sfGFP was expressed in a freshly prepared mixture of kit solution A (2 µL), kit solution B (1.5 µL), 50-fold diluted RF1 (0.5 µL), sfGFP template (0.1325 pmol, 35 ng) or water as control (0.25 µL), PSB (0.25 µL), and a PrAMP (50, 5, 0.05 or 0 µmol/L) dissolved in water (0.5 µL). The reaction mixture was transferred to a black 384-well plate (Greiner Bio-One GmbH, Frickenhausen, Germany), covered with a lid, and incubated in a microplate reader (Gemini EM, Molecular Devices) at 37 °C for two hours. Fluorescence was recorded every 10 min (λexc = 485 nm, λem = 535 nm).

[5] = tested on: uL22 and uL4; settings: cited from earlier work

CC[C@H](C)[C@H](NC(=O)[C@H](Cc1ccc(O)cc1)NC(=O)[C@@H](NC(=O)[C@@H]1CCCN1C(=O)[C@H](CCCNC(=N)N)NC(=O)[C@H](CC(N)=O)NC(=O)[C@H](CC(N)=O)NC(=O)[C@H](CCCN)N=C(N(C)C)N(C)C)C(C)C)C(=O)N1CCC[C@H]1C(=O)N[C@@H](CCCNC(=N)N)C(=O)N1CCC[C@H]1C(=O)N[C@@H](CCCNC(=N)N)C(=O)N1CCC[C@H]1C(=O)N1CCC[C@H]1C(=O)N[C@@H](Cc1c[nH]cn1)C(=O)N1CCC[C@H]1C(=O)N[C@@H](CCCNC(=N)N)C(=O)N[C@@H](CC(C)C)C(=O)O [Api137] ({Orn(α-tetramethylguanidino)}-NNRPVYIPRPRPPHPRL-OH)
efficacy in murine infection models [1]: demonstrated efficacy in various murine infection models | binding sites identified on 50S [2]: another apidaecin molecule in an unexpected location near the exit of the PET | Kd [3]: ~5 µM | production of sfGFP reduced down to ([4]; absence of RF1, 50 µmol/L): ~ 60% | share of inhibitory effect based on a RF1-independent mechanism ([4]; in vitro protein translation, with vs without RF1): half of the inhibitory effect | ribosomal proteins interacting (genetic screen) [5]: uL22 and uL4
